How the values were obtained:
[1] = target: T1, human TrkA (Homo sapiens, UniProt P04629); test: Test Example 2: Human TrkA Inhibition Assay; type: biochemical; details: Test Example 2; human TrkA 2.5 nmol/L, ATP 500 μmol/L, 90 min at room temperature; read-out: TrkA inhibitory activity IC50
T1 construct: purchased Lifetechnologies PV3144
In short: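 Mobility-shift kinase assay: 90 min reaction at room temperature, stopped with EDTA buffer; phosphorylated and non-phosphorylated fluorescent substrate measured, conversion ratio calculated. Inhibition % normalised between DMSO-only wells and no-TrkA wells.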

[2] = target: T1, human TrkA; test: Test Example 2-2: Human TrkA Inhibition Assay; type: biochemical
Procedure: Seven point five μL per well of human TrkA (PV3144, Lifetechnologies, final concentration: 1 nmol/L) suspended in the assay buffer (100 mmol/L 4-(2-hydroxyethyl)-1-piperazineethanesulfonic acid (HEPES), 10 mmol/L magnesium chloride, 0.003 vol % Brij-35, 0.004 vol % Tween20 and 1 mmol/L dithiothreitol (DTT)) was applied in a 384 well plate and the plate was pre-incubated for 15 min at room temperature with 0.4 μL of each compound (final concentration: […]) dissolved in DMSO. Then, fluorescent substrate (FL-peptide 27, 760424, PerkinElmer, final concentration: 1.5 μmol/L) and ATP (final concentration […]) dissolved in the assay buffer was added in each well. After the incubation of 120 min at 37° C., fifteen μL of termination buffer (100 mmol/L HEPES, 40 mmol/L ethylenediaminetetraacetic acid (EDTA), 10 mmol/L magnesium chloride, 0.003 vol % Brij-35, 0.004 vol % Tween20, 1 mmol/L DTT and 0.16 vol % Coating Reagent 3) was added in each well to stop the enzyme reaction. Fluorescent intensities (FI) of phosphorylated and non-phosphorylated fluorescent substrates were measured by LabChip EZReader II (Caliper LifeSciences, Inc.), and conversion ratio (CR) was calculated by the following formula-1. The CR in the well applied with DMSO alone was used as a negative control and the CR in the well without applying TrkA was used as a positive control. The inhibitory effect of each compound on TrkA phosphorylation was calculated by the following formula-2. CR (%)=(FI of phosphorylated substrate/(FI of phosphorylated substrate+FI of non-phosphorylated substrate))×100 (Formula-1) Phosphorylation inhibition (%)=(1−(CR with compound treatment−CR of positive control)/(CR of negative control−CR of positive control))×100 (Formula-2) Inhibitory effect on TrkA phosphorylation (%)=(1−(CR in compound treated well−CR in positive control)/(CR in negative control−CR in positive control))×100.
The 50/o inhibitory concentration (IC50) was determined by the logistic regression using the inhibition data in 10 points at a range of 2 μmol/L to 0.1 nmol/L or 200 μmol/L to 10 nmol/L).

[3] = human TrkA 1 nmol/L, 120 min at 37° C., read-out: TrkA inhibition IC50
[4] = human TrkA inhibition, class symbols A/B/C, read-out: IC50_nM
[5] = class symbols, read-out: IC50_nM

T1 sequence (P04629 33-796): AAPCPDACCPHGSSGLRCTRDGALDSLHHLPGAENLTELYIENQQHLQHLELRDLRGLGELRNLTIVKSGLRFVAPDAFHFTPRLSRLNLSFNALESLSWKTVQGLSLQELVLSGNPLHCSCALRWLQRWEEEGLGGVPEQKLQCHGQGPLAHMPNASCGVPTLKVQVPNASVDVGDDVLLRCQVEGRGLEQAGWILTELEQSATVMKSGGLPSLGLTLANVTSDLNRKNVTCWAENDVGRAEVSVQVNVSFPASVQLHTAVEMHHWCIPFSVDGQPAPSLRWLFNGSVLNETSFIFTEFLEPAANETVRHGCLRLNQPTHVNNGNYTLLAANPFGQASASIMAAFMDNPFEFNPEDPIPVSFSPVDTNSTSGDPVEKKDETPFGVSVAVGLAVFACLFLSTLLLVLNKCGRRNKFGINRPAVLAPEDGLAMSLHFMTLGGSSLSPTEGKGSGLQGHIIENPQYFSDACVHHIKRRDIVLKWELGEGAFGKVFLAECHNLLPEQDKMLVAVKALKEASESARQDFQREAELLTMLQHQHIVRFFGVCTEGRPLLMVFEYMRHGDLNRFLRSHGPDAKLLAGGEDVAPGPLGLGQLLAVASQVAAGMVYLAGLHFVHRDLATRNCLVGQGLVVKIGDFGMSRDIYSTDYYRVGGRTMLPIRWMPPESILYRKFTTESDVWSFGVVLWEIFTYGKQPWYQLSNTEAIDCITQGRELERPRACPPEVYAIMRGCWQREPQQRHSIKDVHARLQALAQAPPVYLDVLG

Compound	IC50 [2, 3]	IC50 [2, 4]	other results
COCCN1C[C@@H](OC(=O)Nc2c(C)c(-c3cnn(C)c3)nn2-c2ccccc2)[C@H](c2ccc(F)c(F)c2)C1 (racemic) [Compound I-1]	120 nM		IC50 [1]: 83 nM
Cc1c(-c2cnn(C)c2)nn(-c2ccccc2)c1NC(=O)N[C@@H]1CN(CCOCC(F)(F)F)C[C@H]1c1ccc(F)c(F)c1 [Compound I-22]	170 nM		IC50 [1]: 35 nM
COCCN1C[C@@H](NC(=O)Nc2c(C)c(-c3cnn(C)c3)nn2-c2ccccc2)[C@](C)(c2ccccc2)C1 (racemic) [Compound I-16]	410 nM		IC50 [1]: 121 nM
COCC[C@@H]1C[C@@H](NC(=O)Nc2c(C)c(-c3ccc(C(=O)O)cc3)nn2-c2ccccc2)[C@H](c2ccc(F)c(F)c2)N1 [Compound I-260]		< 100 nM	
CCc1ccc(CN2C[C@@H](NC(=O)Nc3c(C)c(-c4cnn(C)c4)nn3-c3ccccc3)[C@H](c3ccc(F)c(F)c3)C2)o1 [Compound I-192]		100 to 1000 nM	
COCC(c1ccco1)N1C[C@@H](NC(=O)Nc2c(C)c(-c3cnn(C)c3)nn2-c2ccccc2)[C@H](c2ccc(F)c(F)c2)C1 (some centres unmarked) [Compound I-186]		100 to 1000 nM	
COCC[C@@H]1C[C@@H](NC(=O)Nc2c(C)c(OCC3CCN(C)CC3)nn2-c2ccccc2)[C@H](c2ccccc2)C1 [Compound I-272]			IC50 [2, 5]: < 100 nM
COCCC1C[C@@H](NC(=O)Nc2cc(-c3ccc(C(=O)OC)cc3)nn2C)[C@H](c2ccccc2)C1 (relative stereo) [Compound I-181]		> 1000 nM	
COCCC1C[C@@H](NC(=O)Nc2c(C)c(OCC(C)(C)O)nn2-c2ccccc2)[C@H](c2ccccc2)C1 (relative stereo) [Compound I-182]		100 to 1000 nM	
Cc1cc(CN2C[C@@H](NC(=O)Nc3c(C)c(-c4cnn(C)c4)nn3-c3ccccc3)[C@H](c3ccc(F)c(F)c3)C2)oc1C [Compound I-203]		100 to 1000 nM	
CNC(=O)c1ccc(-c2cc(NC(=O)N[C@@H]3CC(CCOC)C[C@H]3c3ccccc3)n(C)n2)cc1 (some centres unmarked) [Compound I-200]		> 1000 nM	
COCC[C@@H]1C[C@@H](NC(=O)Nc2c(C)c(C3=CCN(C(=O)OC)CC3)nn2-c2ccccc2)[C@H](c2ccccc2)C1 [Compound I-268]			IC50 [2, 5]: < 100 nM
COCC[C@@H]1C[C@@H](NC(=O)Nc2c(C)c(-c3ccc(C(=O)O)cc3)nn2-c2ccccc2)[C@H](c2ccc(F)c(F)c2)N1C [Compound I-237]		< 100 nM	
Cc1c(-c2cnn(C)c2)nn(-c2ccccc2)c1NC(=O)N[C@@H]1CN(Cc2ccc(Cl)o2)C[C@H]1c1ccc(F)c(F)c1 [Compound I-202]	0.71 nM		
Cc1c(-c2cnn(C)c2)nn(-c2ccccc2)c1NC(=O)N[C@@H]1CN(Cc2ccc(Br)o2)C[C@H]1c1ccc(F)c(F)c1 [Compound I-190]	1.3 nM		
Cc1c(-c2cnn(C)c2)nn(-c2ccccc2)c1NC(=O)N[C@@H]1CN(C(C)C)C[C@H]1c1ccc(F)c(F)c1 [Compound I-194]		> 1000 nM	
COCC(OC)[C@H]1C[C@@H](NC(=O)Nc2c(C)c(-c3cnn(C)c3)nn2-c2ccccc2)[C@H](c2ccc(F)c(F)c2)N1C (some centres unmarked) [Compound I-231]		> 1000 nM	
Cc1c(-c2cnn(C)c2)nn(-c2ccccc2)c1NC(=O)N[C@@H]1CN(Cc2ccc(CO)o2)C[C@H]1c1ccc(F)c(F)c1 [Compound I-191]		100 to 1000 nM	
COCCN1C[C@@H](NC(=O)Cc2c(C)c(-c3cnn(C)c3)nn2-c2ccccc2)[C@H](c2ccc(F)c(F)c2)C1 [Compound I-8]	71 nM		IC50 [1]: 26 nM
Cc1c(-c2cnn(C)c2)nn(-c2ccccc2)c1NC(=O)N[C@@H]1CN(Cc2cc(Br)co2)C[C@H]1c1ccc(F)c(F)c1 [Compound I-189]		< 100 nM	
COCC[C@@H]1C[C@@H](NC(=O)Nc2c(C)c(-c3cnn(C)c3)nn2-c2ccccc2)[C@](O)(c2ccccc2)C1 [Compound I-273]			IC50 [2, 5]: > 1000 nM

Second part, led by results:

IC50 [2, 3]	IC50 [2, 4]	Compound	other results
21 nM		CC=C1C[C@@H](NC(=O)Nc2c(C)c(-c3cnn(C)c3)nn2-c2ccccc2)[C@H](c2ccccc2)C1 [Compound I-102]	IC50 [1]: 43 nM
220 nM		CNC(=O)C(COC)N1C[C@@H](NC(=O)Nc2c(C)c(-c3cnn(C)c3)nn2-c2ccccc2)[C@H](c2ccc(F)c(F)c2)C1 (some centres unmarked) [Compound I-109]	IC50 [1]: 95 nM
210 nM		COCCN1C[C@@H](NC(=O)Nc2c(C)c(-c3cnn(C)c3)nn2-c2ccccc2)[C@H](c2ccc3c(c2)OCO3)C1 (racemic) [Compound I-94]	IC50 [1]: 22 nM
	> 1000 nM	Cc1c(-c2cnn(C)c2)nn(-c2ccccc2)c1NC(=O)N[C@@H]1C[C@@H](Oc2ccccn2)C[C@H]1c1ccccc1 (racemic) [Compound I-223]	
0.9 nM		COCC[C@@H]1C[C@@H](NC(=O)Nc2c(C)c(-c3cnn(C)c3)nn2-c2ccccc2)[C@H](c2ccccc2)[C@H]1C [Compound I-241]	
	100 to 1000 nM	COCCN1C[C@@H](NC(=O)Nc2c(C)c(-c3cnn(C)c3)nn2-c2ccccc2)[C@H](c2ccnc(OC)c2)C1 (racemic) [Compound I-228]	
	< 100 nM	COCCC1C[C@@H](NC(=O)Nc2c(C)c(-c3cnn(C)c3)nn2-c2ccccc2)[C@H](c2ccc(O)cc2)C1 (some centres unmarked) [Compound I-222]	
	< 100 nM	COCC[C@H]1C[C@@H](NC(=O)Nc2c(C)c(-c3cnn(C)c3)nn2-c2ccccc2)[C@H](c2ccccc2)N1C [Compound I-246]	
5.4 nM		COCCC1C[C@@H](NC(=O)Nc2c(C)c(-c3cnn(C)c3)nn2-c2ccccc2)[C@H](c2ccc(F)c(F)c2)N1C (some centres unmarked) [Compound I-87]	IC50 [1]: 1.8 nM
	100 to 1000 nM	COCC[C@@H]1C[C@@H](NC(=O)Nc2c(C)c(-c3cnn(C)c3)nn2-c2ccccc2)[C@H](c2ccccc2)[C@H]1CO [Compound I-226]	
	> 1000 nM	COCC(COS(C)(=O)=O)[C@@H]1C[C@@H](NC(=O)Nc2c(C)c(-c3cnn(C)c3)nn2-c2ccccc2)[C@H](c2ccccc2)C1 (some centres unmarked) [Compound I-245]	
	< 100 nM	CCN1C(CCOC)C[C@@H](NC(=O)Nc2c(C)c(-c3cnn(C)c3)nn2-c2ccccc2)[C@@H]1c1ccc(F)c(F)c1 (some centres unmarked) [Compound I-178]	
	< 100 nM	CCOc1nn(-c2ccccc2)c(NC(=O)N[C@@H]2CC(CCOC)C[C@H]2c2ccccc2)c1C (some centres unmarked) [Compound I-212]	
	< 100 nM	CCOCCN1C[C@@H](NC(=O)Nc2c(C)c(-c3cnn(C)c3)nn2-c2ccccc2)[C@H](c2ccc(F)c(F)c2)C1 [Compound I-249]	
	< 100 nM	COCC[C@@H]1C[C@@H](NC(=O)Nc2c(C)c(-c3cnc(C)nc3)nn2-c2ccccc2)[C@H](c2ccccc2)C1 [Compound I-263]	
1.5 nM		COCC[C@@H]1C[C@@H](NC(=O)Nc2c(C)c(-c3cnn(C)c3)nn2-c2ccccc2)[C@H](c2ccccc2)C1 [Compound I-84]	IC50 [1]: 0.72 nM
	> 1000 nM	CO[C@@H]1C[C@H](NC(=O)Nc2c(C)c(-c3cnn(C)c3)nn2-c2ccccc2)[C@@H](c2ccccc2)C1 (racemic) [Compound I-233]	
	< 100 nM	CCOc1nn(-c2ccccc2)c(NC(=O)N[C@@H]2CC(CCOC)C[C@H]2c2ccccc2)c1C (some centres unmarked) [Compound I-183]	
	100 to 1000 nM	COCCC1C[C@@H](NC(=O)Nc2c(C)c(-c3cnn(C)c3)nn2-c2ccccc2)[C@H](c2ccc(F)c(F)c2)N1CC#N (some centres unmarked) [Compound I-179]	
	100 to 1000 nM	COCC(C(=O)OC)[C@@H]1C[C@@H](NC(=O)Nc2c(C)c(-c3cnn(C)c3)nn2-c2ccccc2)[C@H](c2ccccc2)C1 (mixture of isomers) [Compound I-244]	
37 nM		COCCC1C[C@@H](NC(=O)Nc2c(C)c(-c3cnn(C)c3)nn2-c2ccccc2)[C@H](c2ccc(F)c(F)c2)N1 (some centres unmarked) [Compound I-91]	IC50 [1]: 7.8 nM
18 nM		Cc1c(-c2cnn(C)c2)nn(-c2ccccc2)c1NC(=O)N[C@@H]1CN(CCOC(F)F)C[C@H]1c1ccccc1 (racemic) [Compound I-248]	
76 nM		COCC(CO)[C@@H]1C[C@@H](NC(=O)Nc2c(C)c(-c3cnn(C)c3)nn2-c2ccccc2)[C@H](c2ccccc2)C1 (some centres unmarked) [Compound I-239]	
10 nM		COCCN1C[C@@H](NC(=O)Nc2c(C)c(-c3cnn(C)c3)nn2-c2ccccc2)[C@H](c2ccc3nonc3c2)C1 (racemic) [Compound I-209]	
	100 to 1000 nM	CO[C@@H]1C[C@@H](NC(=O)Nc2c(C)c(-c3cnn(C)c3)nn2-c2ccccc2)[C@H](c2ccccc2)C1 (racemic) [Compound I-210]	

From patent publication US10532985B2, “Heterocycle and carbocycle derivatives having TRKA inhibitory activity” (Shionogi & Co., Ltd., priority 2014, dated 2020)
